Activation and EC50 data for 26 molecules are collected here from patent US10208030B2, “GPR119 agonist compounds” (Mankind Pharma Ltd., priority 2016, dated 2019).

Each structure is given as a SMILES string.

One assay addresses T1, hGPR119 (Homo sapiens, UniProt Q8TDV5).
T1 construct: expressed in transfected cells; host or cells: CHO cells (CHO-hGPR119)
T1 sequence (Q8TDV5 1-335): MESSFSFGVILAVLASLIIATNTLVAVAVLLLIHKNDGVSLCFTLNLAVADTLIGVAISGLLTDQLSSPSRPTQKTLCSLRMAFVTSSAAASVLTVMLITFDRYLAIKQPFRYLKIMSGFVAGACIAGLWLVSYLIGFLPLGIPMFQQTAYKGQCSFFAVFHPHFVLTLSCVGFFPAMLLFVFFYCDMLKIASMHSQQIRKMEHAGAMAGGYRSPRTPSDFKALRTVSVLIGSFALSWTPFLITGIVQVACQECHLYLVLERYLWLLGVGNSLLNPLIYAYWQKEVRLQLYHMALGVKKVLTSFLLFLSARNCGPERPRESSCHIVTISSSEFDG
The assay can be described thus: In vitro cyclic AMP assay (Cisbio HTRF) in CHO-hGPR119 cells. The format is cell-based. Conditions: 1 h, cAMP, 1 μM, 60 min, read-out: Induction (% induction at 1 μM). Here is the method: cAMP measurements were done using Cisbio dynamic 2 HTRF kit according to the manufacturer's protocol. Briefly, CHO-hGPR119 cells were plated at a cell density of 5000 cells/well/5 μl into a white small volume 384 well plate. The final concentrations of IBMX and DMSO used were 1 mM and 0.5% respectively. Cells were treated with various concentrations of the test compound for 60 min at room temperature. Cells were lysed by buffer containing Anti-cAMP antibody and d2-cAMP reagents and incubated for 1 hour at room temperature. HTRF was measured at 337 nm excitation and emission wavelengths of 665 nm and 620 nm on a microplate reader (Flurostar, BMG Labtech). Graphpad prism software was utilized for EC50 determinations.
Regarding `CC(C)OC(=O)N1CCC(c2cn3nc(-c4ccc(C(=O)N(C)C)cc4)sc3n2)CC1` [Compound 1034, isopropyl 4-(2-(4-(dimethylcarbamoyl)phenyl)imidazo[2,1-b][1,3,4]thiadiazol-6-yl)piperidine-1-carboxylate], the activation at 1 µM worked out at 53%.
On to `COCCNC(=O)c1ccc(-c2nn3cc(C4CCN(C(=O)OC(C)C)CC4)nc3s2)cc1` [Compound 1035, isopropyl 4-(2-(4-((2-methoxyethyl)carbamoyl)phenyl)imidazo[2,1-b][1,3,4]thiadiazol-6-yl)piperidine-1-carboxylate], for which the activation at 1 µM stood at 21%.
In the case of `CC(C)c1noc(C2CCN(c3nn4cc(-c5ccc(C(=O)N(C)C)cc5)nc4s3)CC2)n1` [Compound 1036, 4-(2-(4-(3-isopropyl-1,2,4-oxadiazol-5-yl)piperidin-1-yl)imidazo[2,1-b][1,3,4]thiadiazol-6-yl)-N,N-dimethylbenzamide], the activation at 1 µM turned out to be 24%.
Turning to `CS(=O)(=O)c1ccc(OCc2cn3nc(C4CCN(Cc5ccccc5)CC4)sc3n2)cc1` [Compound 1038, 2-(1-benzylpiperidin-4-yl)-6-((4-(methylsulfonyl)phenoxy)methyl)imidazo[2,1-b][1,3,4]thiadiazole], the activation at 1 µM stood at 6%.
For `COCCNC(=O)c1ccc(-c2cn3nc(N4CCC(c5nc(C(C)C)no5)CC4)sc3n2)cc1` [Compound 1039, 4-(2-(4-(3-isopropyl-1,2,4-oxadiazol-5-yl)piperidin-1-yl)imidazo[2,1-b][1,3,4]thiadiazol-6-yl)-N-(2-methoxyethyl)benzamide], the activation at 1 µM was 11%.
The same measure, in the same setting: under `CC(C)c1noc(C2CCN(c3nn4cc(COc5ccc(S(C)(=O)=O)cc5)nc4s3)CC2)n1` [Compound 1040, 3-isopropyl-5-(1-(6-((4-(methylsulfonyl)phenoxy)methyl)imidazo[2,1-b][1,3,4]thiadiazol-2-yl)piperidin-4-yl)-1,2,4-oxadiazole] stands 4%; under `CC(C)c1noc(N2CCC(Oc3nn4cc(COc5ccc(S(C)(=O)=O)cc5)nc4s3)CC2)n1` [Compound 1042, 3-isopropyl-5-(4-((6-((4-(methylsulfonyl)phenoxy)methyl)imidazo[2,1-b][1,3,4]thiadiazol-2-yl)oxy)piperidin-1-yl)-1,2,4-oxadiazole], 2%.
For `CC(C)c1noc(C2CCN(c3nn4c(Cl)c(-c5ccc(S(C)(=O)=O)cc5)nc4s3)CC2)n1` [Compound 1044, 5-(1-(5-chloro-6-(4-(methylsulfonyl)phenyl)imidazo[2,1-b][1,3,4]thiadiazol-2-yl)piperidin-4-yl)-3-isopropyl-1,2,4-oxadiazole], the activation at 1 µM is 71%.
The same measure, in the same setting: under `CS(=O)(=O)c1ccc(-c2cn3nc(N4CCC(c5nc(C6CC6)no5)CC4)sc3n2)cc1` [Compound 1045, 3-cyclopropyl-5-(1-(6-(4-(methylsulfonyl)phenyl)imidazo[2,1-b][1,3,4]thiadiazol-2-yl)piperidin-4-yl)-1,2,4-oxadiazole] stands 22%.
In the case of `CC(C)c1noc(C2CCN(c3nn4cc(-c5ccc(C#N)cc5)nc4s3)CC2)n1` [Compound 1046, 4-(2-(4-(3-isopropyl-1,2,4-oxadiazol-5-yl)piperidin-1-yl)imidazo[2,1-b][1,3,4]thiadiazol-6-yl)benzonitrile], the activation at 1 µM is 26%.
As for `CC(C)c1noc(N2CCC(C(C)Oc3nn4cc(-c5ccc(C#N)cc5)nc4s3)CC2)n1` (centres unmarked) [Compound 1047, 4-(2-(1-(1-(3-isopropyl-1,2,4-oxadiazol-5-yl)piperidin-4-yl)ethoxy)imidazo[2,1-b][1,3,4]thiadiazol-6-yl)benzonitrile], the activation at 1 µM amounted to 51%.
Take `CC(C)c1noc(N2CCC(C(C)Oc3nn4cc(-c5ccc(C(=O)N(C)C)cc5)nc4s3)CC2)n1` (centres unmarked) [Compound 1048, 4-(2-(1-(1-(3-isopropyl-1,2,4-oxadiazol-5-yl)piperidin-4-yl)ethoxy)imidazo[2,1-b][1,3,4]thiadiazol-6-yl)-N,N-dimethylbenzamide]: the activation at 1 µM amounted to 56%.
For the molecule `CCCc1cnc(N2CCC(C(C)Oc3nn4cc(-c5ccc(C(=O)N(C)C)cc5)nc4s3)CC2)nc1` (centres unmarked) [Compound 1049, N,N-dimethyl-4-(2-(1-(1-(5-propylpyrimidin-2-yl)piperidin-4-yl)ethoxy)imidazo[2,1-b][1,3,4]thiadiazol-6-yl)benzamide], the activation at 1 µM stood at 55%.
As to `CC(C)c1noc(N2CCC(C(C)Oc3nn4cc(-c5ccncc5)nc4s3)CC2)n1` (centres unmarked) [Compound 1050, 3-isopropyl-5-(4-(1-((6-(pyridin-4-yl)imidazo[2,1-b][1,3,4]thiadiazol-2-yl)oxy)ethyl)piperidin-1-yl)-1,2,4-oxadiazole], the activation at 1 µM was 68%.
Regarding `CC(C)c1noc(C2CCN(c3nn4cc(-c5ccncc5)nc4s3)CC2)n1` [Compound 1051, 3-isopropyl-5-(1-(6-(pyridin-4-yl)imidazo[2,1-b][1,3,4]thiadiazol-2-yl)piperidin-4-yl)-1,2,4-oxadiazole], the activation at 1 µM came to 7%.
In the case of `CC(C)c1noc(C2CCN(c3nn4c(Cl)c(-c5ccncc5)nc4s3)CC2)n1` [Compound 1052, 5-(1-(5-chloro-6-(pyridin-4-yl)imidazo[2,1-b][1,3,4]thiadiazol-2-yl)piperidin-4-yl)-3-isopropyl-1,2,4-oxadiazole], the activation at 1 µM worked out at 12%.
As to `CC(C)c1noc(N2CCC(COc3nn4cc(-c5ccc(C#N)cc5)nc4s3)CC2)n1` [Compound 1053, 4-(2-((1-(3-isopropyl-1,2,4-oxadiazol-5-yl)piperidin-4-yl)methoxy)imidazo[2,1-b][1,3,4]thiadiazol-6-yl)benzonitrile], the activation at 1 µM was found to be 49%.
For the molecule `CC(C)c1noc(N2CCC(COc3nn4cc(-c5ccncc5)nc4s3)CC2)n1` [Compound 1054, 3-isopropyl-5-(4-(((6-(pyridin-4-yl)imidazo[2,1-b][1,3,4]thiadiazol-2-yl)oxy)methyl)piperidin-1-yl)-1,2,4-oxadiazole], the activation at 1 µM was 16%.
Consider `CC(C)c1noc(N2CCC(C(C)Oc3nn4cc(-c5ccc(S(C)(=O)=O)nc5)nc4s3)CC2)n1` (centres unmarked) [Compound 1055, 3-isopropyl-5-(4-(1-((6-(6-(methylsulfonyl)pyridin-3-yl)imidazo[2,1-b][1,3,4]thiadiazol-2-yl)oxy)ethyl)piperidin-1-yl)-1,2,4-oxadiazole], for which the activation at 1 µM was 76%.
`CCc1cnc(N2CCC(C(C)Oc3nn4cc(-c5ccncc5)nc4s3)CC2)nc1` (centres unmarked) [Compound 1056, 2-(1-(1-(5-ethylpyrimidin-2-yl)piperidin-4-yl)ethoxy)-6-(pyridin-4-yl)imidazo[2,1-b][1,3,4]thiadiazole]: the activation at 1 µM was found to be 73%.
In the case of `CC(C)c1noc(N2CCC(C(C)Oc3nn4cc(-c5ccc(S(C)(=O)=O)cc5)nc4s3)CC2)n1` (centres unmarked) [Compound 1057, 3-isopropyl-5-(4-(1-((6-(4-(methylsulfonyl)phenyl)imidazo[2,1-b][1,3,4]thiadiazol-2-yl)oxy)ethyl)piperidin-1-yl)-1,2,4-oxadiazole], the activation at 1 µM is 82%.
Regarding `CC(C)c1noc(N2CCC([C@@H](C)Oc3nn4cc(-c5ccc(S(C)(=O)=O)nc5)nc4s3)CC2)n1` [Compound 1058, (R)-3-isopropyl-5-(4-(1-((6-(6-(methylsulfonyl)pyridin-3-yl)imidazo[2,1-b][1,3,4]thiadiazol-2-yl)oxy)ethyl)piperidin-1-yl)-1,2,4-oxadiazole], the activation at 1 µM amounted to 73%.
On to `CC(C)c1noc(N2CCC([C@@H](C)Oc3nn4cc(-c5ccc(S(C)(=O)=O)cc5)nc4s3)CC2)n1` [Compound 1060, (R)-3-isopropyl-5-(4-(1-((6-(4-(methylsulfonyl)phenyl)imidazo[2,1-b][1,3,4]thiadiazol-2-yl)oxy)ethyl)piperidin-1-yl)-1,2,4-oxadiazole], for which the activation at 1 µM amounted to 65%.
On to `CC(C)c1noc(N2CCC(C(C)Oc3nn4c(F)c(-c5ccc(S(C)(=O)=O)cc5)nc4s3)CC2)n1` (centres unmarked) [Compound 1061, 5-(4-(1-((5-fluoro-6-(4-(methylsulfonyl)phenyl)imidazo[2,1-b][1,3,4]thiadiazol-2-yl)oxy)ethyl)piperidin-1-yl)-3-isopropyl-1,2,4-oxadiazole], for which the activation at 1 µM was 79%.
`CCc1cnc(N2CCC([C@@H](C)Oc3nn4cc(-c5ccc(S(C)(=O)=O)cc5)nc4s3)CC2)nc1` [Compound 1062, (R)-2-(1-(1-(5-ethylpyrimidin-2-yl)piperidin-4-yl)ethoxy)-6-(4-(methylsulfonyl)phenyl)imidazo[2,1-b][1,3,4]thiadiazole]: the activation at 1 µM was 78%.
Take `CC(C)c1noc(N2CCC([C@@H](C)Oc3nn4cc(-c5ccnc(F)c5)nc4s3)CC2)n1` [Compound 1065, (R)-5-(4-(1-((6-(2-fluoropyridin-4-yl)imidazo[2,1-b][1,3,4]thiadiazol-2-yl)oxy)ethyl)piperidin-1-yl)-3-isopropyl-1,2,4-oxadiazole]: the activation at 1 µM came to 62%.

The same assay, now with this note: cAMP, class symbols, legend not given.
For `CC(C)c1noc(N2CCC([C@@H](C)Oc3nn4cc(-c5ccc(S(C)(=O)=O)nc5)nc4s3)CC2)n1` [Compound 1058, (R)-3-isopropyl-5-(4-(1-((6-(6-(methylsulfonyl)pyridin-3-yl)imidazo[2,1-b][1,3,4]thiadiazol-2-yl)oxy)ethyl)piperidin-1-yl)-1,2,4-oxadiazole], the EC50 result is “A+”.
With `CC(C)c1noc(N2CCC([C@@H](C)Oc3nn4cc(-c5ccc(S(C)(=O)=O)cc5)nc4s3)CC2)n1` [Compound 1060, (R)-3-isopropyl-5-(4-(1-((6-(4-(methylsulfonyl)phenyl)imidazo[2,1-b][1,3,4]thiadiazol-2-yl)oxy)ethyl)piperidin-1-yl)-1,2,4-oxadiazole], the EC50 result was “A+”.
Turning to `CCc1cnc(N2CCC([C@@H](C)Oc3nn4cc(-c5ccc(S(C)(=O)=O)cc5)nc4s3)CC2)nc1` [Compound 1062, (R)-2-(1-(1-(5-ethylpyrimidin-2-yl)piperidin-4-yl)ethoxy)-6-(4-(methylsulfonyl)phenyl)imidazo[2,1-b][1,3,4]thiadiazole], the EC50 result is given as “A+”.
